Reference: publication PMC10364322, “Evaluation of chronic drug-induced electrophysiological and cytotoxic effects using human-induced pluripotent stem cell-derived cardiomyocytes (hiPSC-CMs)” (Frontiers in Pharmacology, 2023)
Read-outs that look alike come from different tables or passages of the source.

What was measured:
[1] = test system: hiPSC-CMs (iCell-Cardiomyocytes^2)
Protocol: (§1) Cells were seeded according to the instructions of the cell provider, in fibronectin-coated 48-well MEA plates (Axion Cytoview Plates, M768-tMEA-48B) at a density suited to form a monolayer (i.e., 50 K/well) and maintained in culture in a stage incubator (37°C, 5% CO2).
(§2) At least 4 h before the beginning of the baseline measurements, a full medium exchange was performed (to a final volume of 400 µL per well). Neat compounds were dissolved in 100% DMSO at a stock concentration 1000-fold the highest target concentration. […] Afterwards, these stock solutions were diluted with Maintenance medium (CDi), to 10-fold the intended concentration. The final DMSO concentration in test solutions and vehicle control was 0.1%.
(§3) Spontaneous electrical activity was recorded in hiPSC-CMs monolayers as field potentials using the Maestro Pro MEA instrument (Axion Biosystems, Atlanta, GA, United States), which allows the maintenance of accurate temperature and CO2 levels (37°C, 5% CO2). After the plate was placed in the Maestro Pro and allowed to equilibrate for about 10 min, baseline acquisition of field potential and impedance signals was initiated and lasted for 5 min each. […] As impedance measures resistance of an applied alternating current through the hiPSC-CMs monolayer, a reduction in the attachment of hiPSC-CMs to the bottom of the well due to cell death or changes in the monolayer morphology, causes a drop in the impedance signal.
The potential presence of various arrhythmic events was evaluated and noted during the data analysis.
(§4) After the acquisition of all timepoint measurements, raw data were loaded into the data analysis software Axion Cardiac Analysis Tool (V.3.2.3). […] A.csv file containing information on the FP parameters per well, per time point, was then generated and used as input to the in-house data management system (SPEcII v.3.4, Unlimit-IT, Geel, Belgium), where descriptive statistics were calculated. Summary values at different time points after compound addition are expressed as percent change from baseline and shown as mean ± standard deviation (SD).
(§5) The nonparametric Wilcoxon-Mann Whitney Test was used to compare the percent change from the baseline (Δ%) value between the group treated with the compound at a given concentration and the group treated with the DMSO at each matching time points. A two-sided test at 5% significance level was considered. […] To assess the physiological relevance of changes, a tolerance interval of DMSO experiments was calculated at each time point, for each parameter. […] TIs indicate an interval where, with a certain confidence level (1- α = 0.95), a specified proportion (p = 0.80) of percent change for DMSO data falls. The lower and upper limits based on the TI values were used as cut-offs for the interpretation of the changes. For the cytotoxicity assays, measurements of fluorescence (after background fluorescence subtraction) from wells treated with the compounds were normalized by the average value of vehicle experiments (DMSO 0.1%) to obtain a DMSO-corrected, delta/delta percent change. Experiments from each condition, as delta/delta percent, were averaged and expressed as mean ± SD. Statistical analysis was performed using a non-parametric test (Kruskal-Wallis) and each treatment condition was compared to the relative DMSO 0.1%. Differences were considered statistically significant when the p-value was smaller than 0.05.

[2] = free therapeutic Cmax in humans; ref FDA-approved drug packages, PharmaPendium; cited from earlier work
[3] = test system: hiPSC-CMs (iCell-Cardiomyocytes^2); test: MEA impedance (cytotoxicity readout) in hiPSC-CMs
Protocol: as §1, §2, §3, §4, §5

Flat T-wave-like, number of observations/total well numbers ([1]; 1 µM, 2h): 4/5 | BR (beating rate), % change from baseline ([1]; 1 µM, 24h): -59±5 % | Beating below threshold, number of observations/total well numbers ([1]; 1 µM, 24h): 0/5 | Cessation of beating, number of observations/total well numbers ([1]; 1 µM, 24h): 0/5 | EAD, number of observations/total well numbers ([1]; 1 µM, 24h): 1/5 | Flat T-wave-like, number of observations/total well numbers ([1]; 1 µM, 24h): 5/5 | BR (beating rate), % change from baseline ([1]; 1 µM, 48h): -65±2 % | Beating below threshold, number of observations/total well numbers ([1]; 1 µM, 48h): 0/5 | Cessation of beating, number of observations/total well numbers ([1]; 1 µM, 48h): 0/5 | EAD, number of observations/total well numbers ([1]; 1 µM, 48h): 2/5 | Flat T-wave-like, number of observations/total well numbers ([1]; 1 µM, 48h): 5/5 | BR (beating rate), % change from baseline ([1]; 1 µM, 72h): -68±2 % | Beating below threshold, number of observations/total well numbers ([1]; 1 µM, 72h): 1/5 | Cessation of beating, number of observations/total well numbers ([1]; 1 µM, 72h): 1/5 | EAD, number of observations/total well numbers ([1]; 1 µM, 72h): 0/5 | Flat T-wave-like, number of observations/total well numbers ([1]; 1 µM, 72h): 3/5 | BR (beating rate), % change from baseline ([1]; 1 µM, 96h): -68±0 % | Beating below threshold, number of observations/total well numbers ([1]; 1 µM, 96h): 0/5 | Cessation of beating, number of observations/total well numbers ([1]; 1 µM, 96h): 4/5 | EAD, number of observations/total well numbers ([1]; 1 µM, 96h): 0/5 | Flat T-wave-like, number of observations/total well numbers ([1]; 1 µM, 96h): 1/5 | time point from which cessation of beating occurred in all wells ([1]; 3 µM): 24 h | Beating below threshold, number of observations/total well numbers ([1]; 3 µM, 72h): 0/5 | Cessation of beating, number of observations/total well numbers ([1]; 3 µM, 72h): 5/5 | EAD, number of observations/total well numbers ([1]; 3 µM, 72h): 0/5 | Flat T-wave-like, number of observations/total well numbers ([1]; 3 µM, 72h): 0/5 | Beating below threshold, number of observations/total well numbers ([1]; 3 µM, 96h): 0/5 | Cessation of beating, number of observations/total well numbers ([1]; 3 µM, 96h): 5/5 | EAD, number of observations/total well numbers ([1]; 3 µM, 96h): 0/5 | Flat T-wave-like, number of observations/total well numbers ([1]; 3 µM, 96h): 0/5 | BR (beating rate), % change from baseline ([1]; 3 µM, 2h): -58±4 % | Beating below threshold, number of observations/total well numbers ([1]; 3 µM, 2h): 0/5 | Cessation of beating, number of observations/total well numbers ([1]; 3 µM, 2h): 0/5 | EAD, number of observations/total well numbers ([1]; 3 µM, 2h): 0/5 | EAD-like events ([1]; 3 µM, 2h): EAD-like events occurred | Flat T-wave-like, number of observations/total well numbers ([1]; 3 µM, 2h): 5/5 | BR (beating rate), % change from baseline ([1]; 3 µM, 24h): -71±1 % | Beating below threshold, number of observations/total well numbers ([1]; 3 µM, 24h): 0/5 | Cessation of beating, number of observations/total well numbers ([1]; 3 µM, 24h): 3/5 | EAD, number of observations/total well numbers ([1]; 3 µM, 24h): 0/5 | Flat T-wave-like, number of observations/total well numbers ([1]; 3 µM, 24h): 2/5 | Beating below threshold, number of observations/total well numbers ([1]; 3 µM, 48h): 1/5 | Cessation of beating, number of observations/total well numbers ([1]; 3 µM, 48h): 4/5 | EAD, number of observations/total well numbers ([1]; 3 µM, 48h): 0/5 | Flat T-wave-like, number of observations/total well numbers ([1]; 3 µM, 48h): 0/5
SMILES: COc1cc2c(Nc3ccc(Br)cc3F)ncnc2cc1OCC1CCN(C)CC1 [Vandetanib]
Free Cmax [2]: 0.4 µM | Imp (impedance), % change from baseline ([3]; 0.1 µM, 2h): -3±2% | Imp (impedance), % change from baseline ([3]; 0.1 µM, 24h): -9±2% | Imp (impedance), % change from baseline ([3]; 0.1 µM, 48h): -7±2% | Imp (impedance), % change from baseline ([3]; 0.1 µM, 72h): -9±3% | Imp (impedance), % change from baseline ([3]; 0.1 µM, 96h): -6±3% | Imp (impedance), % change from baseline ([3]; 0.3 µM, 2h): -2±1% | Imp (impedance), % change from baseline ([3]; 0.3 µM, 24h): -9±4% | Imp (impedance), % change from baseline ([3]; 0.3 µM, 48h): -3±3% | Imp (impedance), % change from baseline ([3]; 0.3 µM, 72h): -5±4% | Imp (impedance), % change from baseline ([3]; 0.3 µM, 96h): -6±5% | Imp (impedance), % change from baseline ([3]; 1 µM, 2h): -3±2% | Imp (impedance), % change from baseline ([3]; 1 µM, 24h): -11±3% | Imp (impedance), % change from baseline ([3]; 1 µM, 48h): -13±4% | Imp (impedance), % change from baseline ([3]; 1 µM, 72h): -20±4 % | Imp (impedance), % change from baseline ([3]; 1 µM, 96h): -20±5% | Imp (impedance), % change from baseline ([3]; 3 µM, 72h): -44±7 % | Imp (impedance), % change from baseline ([3]; 3 µM, 96h): -53±5 % | Imp (impedance), % change from baseline ([3]; 3 µM, 2h): 2±4% | Imp (impedance), % change from baseline ([3]; 3 µM, 24h): -16±3% | Imp (impedance), % change from baseline ([3]; 3 µM, 48h): -30±5 %
